Measurements from ChEMBL document CHEMBL1131212, “Synthesis and adrenergic activity of a new series of N-aryl dicyclopropyl ketone oxime ethers: SAR and stereochemical aspects” (J Med Chem, 1998).

What was measured:
[1] = tested on: Rattus norvegicus; assay: Tested for MED (smallest dose giving maximum effect) evaluated by dose-response curve, from 0.1 to 5 mg/kg in 5-10 animals on iv administration.; type: functional; settings: dose mg/kg 0.1-5
[2] = molecular target: T1, Adrenergic receptor beta (Rattus norvegicus) (UniProt P18090+P10608+P26255)
[3] = species: Rattus norvegicus; assay: The compound was tested for percent increase in heart rate with respect to that measured after isoprenaline in 5-10 animals.; type: functional
[4] = species: Cavia porcellus; assay: Chronotropic effect studied in right atria isolated from guinea pig and is expressed in pA2.; settings: read-out: pA2 (converted)
[5] = molecular target: T2, Adrenergic receptor beta (Rattus norvegicus, UniProt P18090+P10608+P26255); assay: Inhibition of beta adrenergic receptor isolated from rat ventricle homogenates.
[6] = molecular target: T3, Adrenergic receptor alpha-1 (Rattus norvegicus, UniProt P15823+P23944+P43140); assay: Inhibition of alpha-1 adrenergic receptor isolated from rat ventricle homogenates
T3 sequence (P15823 whole entry): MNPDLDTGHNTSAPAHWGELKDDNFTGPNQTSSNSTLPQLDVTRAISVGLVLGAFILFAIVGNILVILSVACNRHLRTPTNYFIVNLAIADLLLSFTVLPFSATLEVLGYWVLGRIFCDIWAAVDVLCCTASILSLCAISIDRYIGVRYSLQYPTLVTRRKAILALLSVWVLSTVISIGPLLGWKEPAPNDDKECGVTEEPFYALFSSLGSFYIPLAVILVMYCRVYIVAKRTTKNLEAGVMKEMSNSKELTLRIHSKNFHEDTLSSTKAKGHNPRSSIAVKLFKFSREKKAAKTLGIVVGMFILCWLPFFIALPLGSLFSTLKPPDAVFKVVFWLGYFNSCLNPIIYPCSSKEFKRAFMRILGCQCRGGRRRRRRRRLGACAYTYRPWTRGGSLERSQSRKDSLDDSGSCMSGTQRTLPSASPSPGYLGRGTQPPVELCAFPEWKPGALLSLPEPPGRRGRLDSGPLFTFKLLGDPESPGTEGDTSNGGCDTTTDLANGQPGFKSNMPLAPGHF
T3 sequence (P23944 whole entry): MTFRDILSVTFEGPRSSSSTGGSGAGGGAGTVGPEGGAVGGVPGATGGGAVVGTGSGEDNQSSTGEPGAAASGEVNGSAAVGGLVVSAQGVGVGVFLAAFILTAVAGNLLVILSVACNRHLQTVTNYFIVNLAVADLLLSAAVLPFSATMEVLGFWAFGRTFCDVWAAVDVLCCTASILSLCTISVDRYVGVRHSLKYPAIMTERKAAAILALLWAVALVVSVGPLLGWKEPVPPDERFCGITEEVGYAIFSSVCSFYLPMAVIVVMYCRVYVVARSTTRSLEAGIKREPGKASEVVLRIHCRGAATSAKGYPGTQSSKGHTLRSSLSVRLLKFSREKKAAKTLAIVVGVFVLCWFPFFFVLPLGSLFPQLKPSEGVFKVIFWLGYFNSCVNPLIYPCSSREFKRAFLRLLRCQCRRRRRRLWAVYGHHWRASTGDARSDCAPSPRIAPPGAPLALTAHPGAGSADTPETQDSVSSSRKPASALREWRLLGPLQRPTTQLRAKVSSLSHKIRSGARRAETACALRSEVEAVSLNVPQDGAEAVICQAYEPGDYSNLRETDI
T3 sequence (P43140 whole entry): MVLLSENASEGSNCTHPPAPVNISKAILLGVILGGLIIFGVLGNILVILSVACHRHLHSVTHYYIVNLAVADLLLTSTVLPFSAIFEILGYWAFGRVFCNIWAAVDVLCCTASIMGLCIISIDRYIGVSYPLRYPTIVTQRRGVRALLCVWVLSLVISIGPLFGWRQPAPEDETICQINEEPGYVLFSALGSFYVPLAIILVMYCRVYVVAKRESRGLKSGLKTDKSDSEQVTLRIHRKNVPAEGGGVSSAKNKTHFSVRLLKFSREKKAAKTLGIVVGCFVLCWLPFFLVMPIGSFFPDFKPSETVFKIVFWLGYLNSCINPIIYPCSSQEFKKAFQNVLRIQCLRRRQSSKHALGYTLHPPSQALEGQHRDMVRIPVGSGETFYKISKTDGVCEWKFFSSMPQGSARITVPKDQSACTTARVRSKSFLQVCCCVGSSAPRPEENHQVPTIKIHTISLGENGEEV

[7] = species: Cavia porcellus; assay: Ionotropic effect in electrically driven left atrial preparation (Atria isolated from guinea pig) and is expressed in pA2.; settings: Cardiac atrium, read-out: pA2 (converted)
[8] = molecular target: T2, Adrenergic receptor beta; assay: The compound was tested for the concentration to inhibit 50% of Beta adrenergic receptor isolated from rat ventricle homogenates.; type: functional
[9] = species: Rattus norvegicus; assay: The compound was tested for percent increase in heart rate with respect to that measured after isoprenaline in 5-10 animals and showing significant increase (p <= 0.05) with respect to baseline values (293 +/- 7 to 310 +/- 5 […]).; type: functional
[10] = molecular target: T2, Adrenergic receptor beta; assay: The compound was tested for the concentration to inhibit 50% of Beta adrenergic receptor isolated from rat ventricle homogenates; ND=not determined
[11] = molecular target: T1, Adrenergic receptor beta (Rattus norvegicus); assay: In vitro inhibitory specificity for Beta adrenergic receptor was evaluated; ND=not determined; type: protein assay
[12] = molecular target: Beta-1 adrenergic receptor (Cavia porcellus); assay: Beta-1 adrenergic receptor-Antagonism in isolated guinea pig atria. ( for R-enantiomer); settings: read-out: pA2 app (converted)

Row | Specificity [2] | IC50 [5] [nM] | IC50 [6] [µM] | IC50 [8] [nM] | IC50 [10] [nM] | Specificity [11] | Kb [12] [nM] | Compound | MED [1] [µmol/kg] | Increase [3] [%] | Kb [4] [nM] | Kb [7] [nM] | Increase [9] [%]
1 |  |  |  |  |  |  |  | CN(CC(O)CON=C(C1CC1)C1CC1)c1ccccc1 (stereo not drawn) |  |  | 794000 |  | 
2 | 3700 |  | 12.6 | 3.4 |  |  |  | CC(C)(Cc1ccc(NCC(O)CON=C(C2CC2)C2CC2)cc1)[N+](=O)[O-] (stereo not drawn) | 2.4 | 10 | 20 | 79.4 | 
3 |  |  |  |  |  |  |  | Cc1ccc(NCC(O)CON=C(C2CC2)C2CC2)nc1 (stereo not drawn) |  |  | 25100 |  | 
4 | 2120 | 12.4 | 26.2 |  |  |  |  | OC(CNc1ccc(F)cc1)CON=C(C1CC1)C1CC1 (stereo not drawn) | 2.4 |  | 631 | 1260 | 74
5 | 6700 | 4.1 | 27.5 |  |  |  |  | OC(CNc1ccc(I)cc1)CON=C(C1CC1)C1CC1 (stereo not drawn) | 1.6 |  | 15.8 | 63.1 | 64
6 | 1020 | 35.6 | 36.4 |  |  |  |  | OC(CNc1ccccn1)CON=C(C1CC1)C1CC1 (stereo not drawn) | 4.4 | 0 | 79.4 | 63.1 | 
7 | > 7250 | 13.8 | > 100 |  |  |  |  | OC(CNc1ccc(C(F)(F)F)cc1)CON=C(C1CC1)C1CC1 (stereo not drawn) | 2.2 |  | 63.1 | 126 | 47
8 |  |  | 28.3 |  | 10.4 | 2730 |  | Oc1ccc(NCC(O)CON=C(C2CC2)C2CC2)cc1 (stereo not drawn) | 3.1 | 10 | 79.4 | 200 | 
9 |  |  |  |  |  |  |  | CC(C)(N)Cc1ccc(NCC(O)CON=C(C2CC2)C2CC2)cc1 (stereo not drawn) |  |  | 501 |  | 
10 | 7430 | 12.8 | 95.1 |  |  |  |  | CCOC(=O)c1ccc(NCC(O)CON=C(C2CC2)C2CC2)cc1 (stereo not drawn) | 2.4 | 10 | 79.4 | 251 | 
11 | > 200 | 501 | > 100 |  |  |  |  | Cc1cccc(NCC(O)CON=C(C2CC2)C2CC2)c1 (stereo not drawn) | 9.2 |  | 100 | 126 | 42
12 | 1640 | 11.4 | 18.7 |  |  |  |  | OC(CNc1ccc(Cl)cc1)CON=C(C1CC1)C1CC1 (stereo not drawn) | 2.1 |  | 39.8 | 126 | 47
13 | > 160 | 630 | > 100 |  |  |  |  | OC(CNc1cccc(I)c1)CON=C(C1CC1)C1CC1 (stereo not drawn) | 7.8 |  | 5010 | 3160 | 42
14 | 4390 | 7 | 30.7 |  |  |  |  | CCCCc1ccc(NCC(O)CON=C(C2CC2)C2CC2)cc1 (stereo not drawn) | 2.7 | 10 | 79.4 | 251 | 
15 |  |  |  |  |  |  |  | Cc1cccc(NCC(O)CON=C(C2CC2)C2CC2)n1 (stereo not drawn) |  |  | 10000 |  | 
16 |  |  |  |  |  |  |  | CC(C)NCC(O)COc1cccc2ccccc12 (stereo not drawn) [PROPRANOLOL] | 3 | 0 |  |  | 
17 | 490 | 108 | 53 |  |  |  |  | OC(CNc1ccccc1I)CON=C(C1CC1)C1CC1 (stereo not drawn) | 5.7 | 10 | 1260 | 2510 | 
18 | 4630 | 4.1 | 19 |  |  |  |  | OC(CNc1ccc(Br)cc1)CON=C(C1CC1)C1CC1 (stereo not drawn) | 2.1 | 10 | 20 | 100 | 
19 | 2400 | 7.9 | 19 |  |  |  |  | O=[N+]([O-])c1ccc(NCC(O)CON=C(C2CC2)C2CC2)cc1 (stereo not drawn) | 1.8 | 10 | 100 | 251 | 
20 | 1970 | 7.6 | 15 |  |  |  | 12.6 | Cc1ccc(NCC(O)CON=C(C2CC2)C2CC2)cc1 (stereo not drawn) | 2.5 |  | 12.6 | 10 | 64
21 | 20800 | 3.4 | 70.8 |  |  |  | 11 | CC(C)(C)c1ccc(NCC(O)CON=C(C2CC2)C2CC2)cc1 (stereo not drawn) | 2 |  | 12.6 | 50.1 | 44
22 | 1690 | 13 | 22 |  |  |  |  | Cc1ccccc1NCC(O)CON=C(C1CC1)C1CC1 (stereo not drawn) | 5.3 |  | 126 | 251 | 37
23 | 3570 | 10 | 37.3 |  |  |  |  | O=C(O)c1ccc(NCC(O)CON=C(C2CC2)C2CC2)cc1 (stereo not drawn) | 2.3 |  | 100 | 631 | 65

Row | Compound | Specificity [2] | IC50 [5] [nM] | IC50 [6] [µM] | IC50 [8] [nM] | IC50 [10] [nM] | Specificity [11] | Kb [12] [nM] | MED [1] [µmol/kg] | Increase [3] [%] | Kb [4] [nM] | Kb [7] [nM] | Increase [9] [%]
24 | Cc1ccnc(NCC(O)CON=C(C2CC2)C2CC2)c1 (stereo not drawn) | 640 | 23.9 | 15.3 |  |  |  |  | 2.6 | 0 | 31.6 | 79.4 | 
25 | OC(CNc1ccccc1-c1ccccc1)CON=C(C1CC1)C1CC1 (stereo not drawn) | > 100 | 998 | > 100 |  |  |  |  | > 12.9 | 0 | 100000 | 25100 | 
26 | OC(CNc1ccncc1)CON=C(C1CC1)C1CC1 (stereo not drawn) | 2240 | 32.3 | 72.3 |  |  |  |  | 3.7 | 0 | 63.1 | 251 | 
27 | OC(CNc1ccc(-c2ccccc2)cc1)CON=C(C1CC1)C1CC1 (stereo not drawn) | 690 | 4.5 | 3.1 |  |  |  |  | 1 |  | 10 | 39.8 | 70
28 | OC(CNc1ccccc1)CON=C(C1CC1)C1CC1 (stereo not drawn) | 3940 | 3.3 | 13 |  |  |  |  | 2.7 | 10 | 39.8 | 126 | 
29 | OC(CNc1nc2ccccc2s1)CON=C(C1CC1)C1CC1 (stereo not drawn) | > 29400 | 3.4 | > 100 |  |  |  |  | 4.1 | 10 | 15.8 | 25.1 | 
30 | OC(CNc1nc2ccccc2[nH]1)CON=C(C1CC1)C1CC1 (stereo not drawn) | > 7580 | 13.2 | > 100 |  |  |  |  | 2 | 10 | 63.1 | 100 | 
